Earlier results on two compounds are cited in EP1147779A1, “A method for rendering ursodeoxycholic acid in soluble form pharmaceutical compositions” (BIOPROGRESS S.p.A., priority 2000, dated 2001).

The conditions of series [1]: ursodeoxycholic acid as such; background statement.

Take β-cyclodextrin: under “general statement, allowed by FAO/WHO as food additive”, the toxicity entry is recorded as “no toxicity”. In addition, the “passage of the intestinal mucosa / presence in plasma and urine” value (oral administration to humans) was “does not overcome the barrier of the intestinal mucosa and is not found either in plasma or in urine”. With `C[C@H](CCC(=O)O)[C@H]1CC[C@H]2[C@@H]3[C@@H](O)C[C@@H]4C[C@H](O)CC[C@]4(C)[C@H]3CC[C@]12C` [Ursodeoxycholic acid], the solubility entry in series [1] is reported as “practically insoluble”.
